Laboratory results as given in patent US7064115B2, “(20S)-1α-hydroxy-2α-methyl and 2β-methyl-19-nor-vitamin D3 and their uses” (Wisconsin Alumni Research Foundation, priority 2002, dated 2006).

What was measured:
[1] = Serum calcium (bone calcium mobilization) in rats on low calcium diet, chronic i.p. doses; assay type: in vivo, Sprague-Dawley rats; design: Serum Ca (mean ± SEM): unit not given here; conditions: for Serum Ca (mean ± SEM): male weanling rats, 0.02% Ca diet, 5 animals; for Bone calcium mobilization activity relative to 1,25-(OH)2D3 (in words): summary of Table 1
Method: The in vivo tests to determine serum calcium of rats on a low calcium diet provides an insight to […] or bone activity of (20S)-1α-hydroxy-2α-methyl-19-nor-vitamin D3 and (20S)-1α-hydroxy-2β-methyl-19-nor-vitamin D3.
(§1) Male, weanling Sprague-Dawley rats were placed on Diet 11 (0.47% Ca) diet+AEK for 11 days, followed by Diet 11 (0.02% Ca)+AEK for 31 days. Dosing (i.p.) began 7 days prior to sacrifice. Doses were given on a daily basis, 24 hours apart. The first 10 cm of the intestine was collected for gut transport studies and serum was collected for bone Ca mobilization analysis.

[2] = Intestinal calcium transport in rats on low calcium diet, chronic i.p. doses; assay type: in vivo, Sprague-Dawley rats; conditions: for Ca transport S/M (mean ± SEM): male weanling rats, 0.02% Ca diet, 5 animals; for Activity in stimulating intestinal calcium transport relative to 1,25-(OH)2D3 (in words): summary of Table 1
Method: Intestinal calcium transport was determined as described by Perlman et al. (Biochemistry 29, 190–196, 1990).
as §1

[3] = target: T1, vitamin D pig intestinal nuclear receptor (Sus scrofa, UniProt A3RGC1); assay: Competitive binding of [3H]-1,25-(OH)2-D3 to the porcine intestinal vitamin D receptor; conditions: FIG. 1; for Binding to the vitamin D receptor (in words): compared with 1,25-(OH)2D3
T1 construct: from tissue; host or cells: pig intestine (nuclear receptor preparation)
T1 sequence (A3RGC1 1-427): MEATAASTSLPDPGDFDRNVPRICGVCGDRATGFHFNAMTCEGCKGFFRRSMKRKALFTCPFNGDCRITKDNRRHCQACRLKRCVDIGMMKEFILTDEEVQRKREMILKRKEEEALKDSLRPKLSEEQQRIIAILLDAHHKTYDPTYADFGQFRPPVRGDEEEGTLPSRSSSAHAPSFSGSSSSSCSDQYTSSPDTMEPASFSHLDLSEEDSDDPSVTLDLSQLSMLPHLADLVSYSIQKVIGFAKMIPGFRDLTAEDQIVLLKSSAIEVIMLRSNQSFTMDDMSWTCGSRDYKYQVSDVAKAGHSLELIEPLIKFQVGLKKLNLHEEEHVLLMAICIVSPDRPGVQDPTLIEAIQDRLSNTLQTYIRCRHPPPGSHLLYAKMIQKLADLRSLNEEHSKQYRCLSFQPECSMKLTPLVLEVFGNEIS
Method: FIG. 1 is a graph illustrating the relative activity of (20S)-1α-hydroxy-2α-methyl-19-nor-vitamin D3, (20S)-1α-hydroxy-2β-methyl-19-nor-vitamin D3, and 1α,25-dihydroxyvitamin D3 to compete for binding of [^3H]-1,25-(OH)2-D3 to the vitamin D pig intestinal nuclear receptor; and
Competitive binding of the analogs to the porcine intestinal receptor was carried out by the method described by Dame et al. (Biochemistry 25, 4523–4534, 1986).

HL-60 cells = assay: Differentiation of HL-60 promyelocytes into monocytes; assay type: cell-based; conditions: FIG. 2
Method: FIG. 2 is a graph illustrating the percent HL-60 cell differentiation as a function of the concentration of (20S)-1α-hydroxy-2α-methyl-19-nor-vitamin D3, (20S)-1α-hydroxy-2β-methyl-19-nor-vitamin D3, and of 1α,25-dihydroxyvitamin D3.
The differentation of HL-60 promyelocytic into monoctyes was determined as described by Ostrem et al. (J. Boil. Chem. 262, 14164–14171, 1987).

[4] = 130 pmol/day i.p. daily for 7 days
[5] = 260 pmol/day i.p. daily for 7 days

SMILES: C=C1/C(=C\C=C2/CCC[C@]3(C)[C@@H]([C@H](C)CCCC(C)(C)O)CC[C@@H]23)C[C@@H](O)C[C@@H]1O [1α,25-(OH)2D3, 1α,25-dihydroxyvitamin D3, reference compound]
- Serum Ca (mean ± SEM) [1, 4]: 5.0 ± 0.05
- Serum Ca (mean ± SEM) [1, 5]: 5.5 ± 0.16
- Ca transport S/M (mean ± SEM) [2, 4]: 5.3 ± 0.42
- Ca transport S/M (mean ± SEM) [2, 5]: 6.5 ± 0.84

SMILES: CC(C)CCC[C@H](C)C1CCC2/C(=C/C=C3C[C@@H](O)C(C)[C@H](O)C3)CCC[C@@]21C (stereo partly drawn) [(20S)-1α-(OH)-2α-methyl-19-nor-D3, (20S)-1α-hydroxy-2α-methyl-19-nor-vitamin D3]
- Serum Ca (mean ± SEM) [1, 4]: 10.0 ± 0.20
- Serum Ca (mean ± SEM) [1, 5]: 12.7 ± 0.15
- Bone calcium mobilization activity relative to 1,25-(OH)2D3 (in words) [1]: higher bone calcium mobilization activity, as compared to 1,25-(OH)2D3
- Binding to the vitamin D receptor (in words) [3]: much less active than 1,25(OH)2D3
- Affinity for the vitamin D receptor, fold less than 1α,25-dihydroxyvitamin D3 ([3]; relative to 1,25-(OH)2D3): 100 fold
- Potency on HL-60 differentiation relative to 1,25-(OH)2D3 (in words) (HL-60 cells; listed as (20S)-1α-Hydroxy-2α-methyl-19-nor-vitamin D3): only slightly less active than 1,25-(OH)2D3
- Potency on HL-60 differentiation relative to 1,25-(OH)2D3 (in words) (HL-60 cells; listed as (20S)-1α-hydroxy-2α-methyl-19-nor-vitamin D3): almost as potent as 1,25-(OH)2D3
- Ca transport S/M (mean ± SEM) [2, 4]: 8.6 ± 0.90
- Ca transport S/M (mean ± SEM) [2, 5]: 6.7 ± 0.68
- Activity in stimulating intestinal calcium transport relative to 1,25-(OH)2D3 (in words) [2]: high activity relative to that of 1,25-(OH)2D3

SMILES: CC(C)CCC[C@H](C)C1CCC2/C(=C/C=C3C[C@@H](O)C(C)[C@H](O)C3)CCC[C@@]21C (stereo partly drawn) [(20S)-1α-(OH)-2β-methyl-19-nor-D3, (20S)-1α-hydroxy-2β-methyl-19-nor-vitamin D3]
- Serum Ca (mean ± SEM) [1, 4]: 4.8 ± 0.04
- Serum Ca (mean ± SEM) [1, 5]: 5.1 ± 0.04
- Bone calcium mobilization activity relative to 1,25-(OH)2D3 (in words) [1]: about the same as 1,25-(OH)2D3
- Binding to the vitamin D receptor (in words) [3]: much less active than 1,25(OH)2D3
- Binding to the vitamin D receptor (in words) ([3]; listed as 2β-methyl-(20S)-1α-hydroxyvitamin D3): does not bind
- Potency on HL-60 differentiation relative to 1,25-(OH)2D3 (in words) (HL-60 cells): only slightly less active than 1,25-(OH)2D3
- HL-60 differentiation activity, times less active than 1,25(OH)2D3 (HL-60 cells; relative to 1,25(OH)2D3): 100 times
- Ca transport S/M (mean ± SEM) [2, 4]: 6.8 ± 0.73
- Ca transport S/M (mean ± SEM) [2, 5]: 5.7 ± 0.45
- Activity in stimulating intestinal calcium transport relative to 1,25-(OH)2D3 (in words) [2]: about the same as 1,25-(OH)2D3
